How the values were obtained:
[1] = system: GM-CSF-induced STAT5 phosphorylation; assay: Whole blood assay, GM-CSF stimulation, phospho-STAT5 by FACS; type: cell-based; conditions: human whole blood, CD14+ cells, 8 different donors
Protocol: In addition, a flow cytometry analysis was performed to establish JAK1 over JAK2 compound selectivity ex vivo using human whole blood. Therefore, blood was taken from human volunteers who gave informed consent. Blood was then equilibrated for 30 min at 37° C. under gentle rocking, then aliquoted in Eppendorf tubes. Compound was added at different concentrations and incubated at 37° C. for 30 min under gentle rocking and subsequently stimulated for 20 min at 37° C. under gentle rocking with interleukin 6 (IL-6) for JAK1-dependent pathway stimulation or GM-CSF for JAK2-dependent pathway stimulation. Phospho-STAT1 and phospho-STAT5 were then evaluated using FACS analysis.
For GM-CSF-stimulated increase of Signal Transducers and Activators of Transcription 5 (pSTAT5) phosphorylation in white blood cell, human whole blood, drawn from human volunteers who gave informed consent, is ex vivo treated with compound for 30 min and subsequently stimulated for 20 min with GM-CSF. The increase in phosphorylation of STAT5 by GM-CSF in monocytes is measured using an anti phospho-STAT5 antibody by FACS. […]
Cells are then washed once with 1×PBS and analyzed on a FACSCanto II flow cytometer (BD Biosciences).
50,000 total events are counted and Phospho-STAT5 positive cells are measured after gating on CD14+ cells. […]

[2] = system: CTLL2 (ATCC TIB-214); assay: CTLL2 viability assay; type: cell-based; conditions: IL2-dependent viability, ATP-lite, individual determinations
Protocol: The protocol describes the methods to analyse the activity of compounds on the ability to sustain the IL2-dependent viability of CTLL2 (ATCC TIB-214).
Negative control is a DMSO dilution, positive control at 10 μM. Final DMSO concentration is 0.1%.

[3] = biological target: T1, JAK2 (Homo sapiens, UniProt O60674); assay: JAK2 Ki determination assay (kinase tracer 236 binding); conditions: binding experiment, 25 nM kinase tracer 236; read-out: Ki against JAK2
T1 construct: Recombinant human JAK2 catalytic domain (amino acids 808-1132; catalog number PV4210); purchased Invitrogen PV4210
T1 sequence (O60674 808-1132): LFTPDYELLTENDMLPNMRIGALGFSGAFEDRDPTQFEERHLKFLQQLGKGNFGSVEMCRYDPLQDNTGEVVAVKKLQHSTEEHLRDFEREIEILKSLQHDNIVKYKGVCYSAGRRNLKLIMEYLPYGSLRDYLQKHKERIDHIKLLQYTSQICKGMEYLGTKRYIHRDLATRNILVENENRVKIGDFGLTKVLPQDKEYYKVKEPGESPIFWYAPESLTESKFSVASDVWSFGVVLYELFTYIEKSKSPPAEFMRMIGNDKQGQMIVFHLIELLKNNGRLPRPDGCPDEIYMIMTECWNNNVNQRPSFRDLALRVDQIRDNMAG
Protocol: JAK2 (Invitrogen, PV4210) was used at a final concentration of 5 nM. The binding experiment was performed in 50 mM Hepes pH 7.5, 0.01% Brij-35, 10 mM MgCl2, 1 mM EGTA using 25 nM kinase tracer 236 (Invitrogen, PV5592) and 2 nM Eu-anti-GST (Invitrogen, PV5594) with varying compound concentrations. Detection of tracer was performed according to the manufacturer's procedure.

IC50 [1]: > 22.4 µM | Ki [3]: 0.0626 µM
Compound: CCc1cc(C2CN(S(C)(=O)=O)C2)ncc1N(C)c1cc2c(cn1)ncn2C [Compound 1, [4-Ethyl-6-(1-methanesulfonyl-azetidin-3-yl)-pyridin-3-yl]-methyl-(1-methyl-1H-imidazo[4,5-d]pyridin-6-yl)-amine]
IC50 ([2]; 24 h, listed as compound of the invention): 3.79 µM | IC50 ([2]; Mus musculus, CTLL-2, 24 h): 7.39 µM
